Reference: patent publication US20130039857A1, “METHODS OF SUPPRESSING CANCER, INCREASING WEIGHT LOSS AND/OR INCREASING INSULIN SENSITIVITY” (priority 2010, published 2013)

What was measured:
Wild-type mice = test: Whole-body indirect calorimetry, wild-type mice; type: in vivo, mouse
Source text: (§1) Eight- to ten-week-old male C57BL6/J, pp59^fyn null mice and their controls were obtained from The Jackson Laboratory (Bar Harbor, Me.) and housed in a facility equipped with a 12 hr light/dark cycle. Animals were fed ad libitum a standard chow diet (Research Diets, New Brunswick, N. J.) containing 75.9% (Kcal) carbohydrates, 14.7% protein, and 9.4% fat. All studies were approved by and performed in compliance with the guidelines of the Yeshiva University Institutional Animal Care and Use Committee (IACUC).
(§2) Oxygen and carbon dioxide consumption were simultaneously determined by Oxymax open-circuit indirect calorimetry system (eight-cage system) (Columbus Instruments). Animals were allowed to acclimatize for two complete light and dark cycles (48 hr), and SU6656 (2-oxo-3-(4,5,6,7-tetrahydro-1H-indol-2-ylmethylene)-2,3-dihydro-1H-indole-5-sulfonic acid dimethylamide) injections were performed at the beginning of the light cycle the following day. Measurements were subsequently taken 12 hr following the injection. Data were analyzed as the average of 1 hr measurements for each mouse. Instrument settings were as follows: gas flow rate, 0.6 1/min; sample flow rate, 0.5 1/min; settle time, 120 s; measure time, 60 s.
Loss of Fyn kinase protein in the conventional Fyn knockout mice leads to increased lipid utilization and energy expenditure, particularly in the fasting/resting state (Bastie et al., 2007). To examine the effects of acute Fyn inhibition, the in vivo effects of the pharmacological selective Src family kinase inhibitor SU6656 was investigated. Wild-type mice were placed into metabolic chambers and allowed to acclimatize for 48 hr. Intraperitoneal injection of SU6656 or vehicle was performed at the beginning of the light cycle (fasting/resting state), and the respiratory quotient (RQ), oxygen consumption (VO2), energy expenditure (EE), and physical activity were monitored for the following 12 hr. […] Oxygen consumption and energy expenditure were similar in both groups before the injection and were decreased during the light period as the animals were resting with reduced basal metabolism.

[1] = Total body mass and magnetic resonance imaging (fat and lean mass), wild-type mice; type: in vivo, mouse
Experimental: Total body mass (g) was recorded before (T=0) and 12 hr (T=12 hr) after the SU6656 injection. To determine fat and lean mass, animals were placed in a clear plastic holder without anesthesia or sedation and inserted into the EchoMRI-3-in-1™ System from Echo Medical Systems (Houston, Tex., USA). Total body fat and lean mass were measured before (T=0) and after (T=12 hr) after the injection.
As mice generally consume 80% of their calories during the dark cycle and have a limited food intake during the light cycle, they undergo a diurnal pattern of weight gain and loss as shown by the decreased body mass at T=12 hr in the vehicle-treated mice. […] To determine whether the lowered RQ in the mice treated with SU6656 was directly due to increased skeletal muscle fatty acid oxidation, red soleus and white gastrocnemius muscles were isolated 3 hr following the vehicle or SU6656 injection and incubated with ^14C-palmitate. The oxidation of ^14C-palmitate to ^14CO2 was increased 25% and 33%, respectively, in the soleus and the gastrocnemius of the SU6656-treated mice relative to vehicle treated controls (FIGS. 3A and 3B). The SU6656-stimulated increase in fatty acid oxidation occurred concomitantly, with an approximate 3-fold increased AMPK α subunit T172 phosphorylation and increased ACC S79 (ACC1) and S221 (ACC2) phosphorylation levels (FIGS. 3C and 3D).

[2] = tested on: red soleus and white gastrocnemius muscles; test: Fatty acid oxidation in isolated muscles (14C-palmitate to 14CO2); type: in vivo, mouse; settings: relative to vehicle treated controls
Experimental: Animals received a single intraperitoneal injection of SU6656 or vehicle in the morning. Mice were sacrificed by cervical dislocation 3 hr after the injection. Skeletal muscles (red soleus and white gastrocnemius) were rapidly removed and preincubated for 10 min in oxygenated (95% O2, 5% CO2) Earle's solution (Invitrogen, Carlsbad, Calif.) supplemented with 5 mMD-glucose, 250 μM palmitate, and 0.5% BSA plus either 10 μM SU6656 or an equal volume of DMSO. Tissues were incubated for 45 min in the same buffer containing […] palmitate containing 1 μCi/ml [1-^14C] palmitate tracer (Amersham, Piscataway, N. J.) bound to 0.5% BSA. Incubations were carried out under an atmosphere of 95% O2/5% CO2 at 30° C. in glass vials (Kontes, Vineland, N.J.) equipped with a center well filled with 200 μl of 2N NaOH (trapping agent). At the end of the incubation, perchloric acid was added through the cap to a concentration of […], and vials were incubated for 3 hr at 30° C. with moderate shaking. The ^14CO2 produced was determined by scintillation counting of NaOH using the UniScintBD scintillation liquid (National Diagnostics, Atlanta, Ga.).
As mice generally consume 80% of their calories during the dark cycle and have a limited food intake during the light cycle, they undergo a diurnal pattern of weight gain and loss as shown by the decreased body mass at T=12 hr in the vehicle-treated mice. […]

[3] = tested on: AMPK α subunit T172 phosphorylation; test: Western blot of phospho-T172 AMPK in white gastrocnemius; type: in vivo, mouse; settings: SU6656 4 mg/kg, 3 hr after injection, vs vehicle
Experimental: (§3) Animals were injected with vehicle or SU6656 (4 mg/kg) at the beginning of the light cycle. They were anesthetized and sacrificed by cervical dislocation 3 hr after the injection. Tissues were rapidly freeze clamped in liquid nitrogen and stored at […]. Protein preparation and blotting were performed as described below. Tissues were ground in liquid nitrogen and homogenized in a buffer containing 50 mM Tris (pH 7.4), 1% glycerol, and 1% Triton X-100 supplemented with protease inhibitor (Complete Mini, Roche Pharmaceuticals, Nutley, N. J.). Homogenates were centrifuged for 30 min at 14,000 rpm at 4° C., and supernatants were collected. Protein concentration was determined with the BCA™ Protein Assay (Thermo Scientific, Rockford, Ill.).
(§4) Protein samples (40 μg) were separated on 8% or 10% reducing polyacrylamide gels and transferred onto Immobilon-P polyvinylidene difluoride membranes. […] Alternatively, immunoblots were incubated with IRDye800CW goat antimouse (H+L) or IRDye680 goat anti-rabbit (H+L) secondary antibodies, and signal was detected with the Odyssey® Infrared Imaging System (Li-COR Biotechnology, Lincoln, Nebr.).

[4] = tested on: ACC S79 (ACC1) and S221 (ACC2) phosphorylation; test: Western blot of phospho-ACC in white gastrocnemius; type: in vivo, mouse; settings: SU6656 4 mg/kg, 3 hr after injection, vs vehicle
Experimental: as §3, §4

Fyn knockout mice = test: Whole-body indirect calorimetry and body mass, Fyn knockout mice; type: in vivo, mouse
Source text: as §1, §2
To address this issue, the metabolic effect of SU6656 on wild type versus Fyn knockout mice was investigated. […]

[5] = tested on: LKB1 subcellular localization in C2C12 muscle cell line; test: GFP-LKB1 subcellular localization in C2C12 myotubes; type: cell-based; parameters: dose or concentration left out as unconfirmed; settings: C2C12 myotubes transfected with pEGFP-LKB1
Experimental: FIGS. 4A-4F. Fyn Kinase Activity Regulates LKB1 Subcellular Distribution. (4A) C2C12 myotubes were transfected with pEGFP-LKB1 and incubated with vehicle or SU6656 ([…]) for 2 hr. Cells were fixed and mounted with proQ diamond with DAPI solution. (4B) Shown is percentage of cells with pEGFPLKB1 signal detected in the cytoplasm. (4C) C2C12 myotubes were cotransfected with pEGFP-LKB1 and pcDNA3-Fyn-KD or pcDNA3-Fyn-CA. Cells were fixed and incubated with the mouse Fyn monoclonal antibody. Immunofluorescence was performed using the Alexa Fluor 594 Anti-mouse IgG. (4D) Percentage of C2C12 cells with pEGFP-LKB1 signal detected in the cytoplasm. Data are representative of n=5 experiments. (4E) Fully differentiated 3T3L1 adipocytes were cotransfected with pcDNA3-LKB1 and pcDNA3-Fyn-KD or pcDNA3-Fyn-CA. […] (4F) Percentage of 3T3L1 cells with LKB1 signal detected in the cytoplasm. […]
The ratio of cytosolic and nuclear LKB1 was quantified using the Image J software (National Institutes of Health). […]
C2C12 myotubes were cotransfected with 50 μg pEGFP-C2-LKB1 or pcDNA3-Flag-LKB1 or pcDNA3-Flag-LKB1 mutants and 200 μg of the indicated pcDNA3-Fyn constructs. […] Cells were imaged using a confocal fluorescence microscope (TCS SP5 confocal; Leica Microsystems). […]

LKB1 = test: Endogenous LKB1 immunofluorescence in skeletal muscle in vivo; parameters: species or system mouse; settings: wild-type mice treated with SU6656
Fyn kinase = Fyn kinase (Homo sapiens, UniProt P06241); parameters: dose or concentration left out as unconfirmed; settings: cited from earlier work
[6] = SU6656 4 mg/kg intraperitoneal, light period, 12 hr following injection

Chain of Fyn kinase (P06241 1-534 isoform P06241-2): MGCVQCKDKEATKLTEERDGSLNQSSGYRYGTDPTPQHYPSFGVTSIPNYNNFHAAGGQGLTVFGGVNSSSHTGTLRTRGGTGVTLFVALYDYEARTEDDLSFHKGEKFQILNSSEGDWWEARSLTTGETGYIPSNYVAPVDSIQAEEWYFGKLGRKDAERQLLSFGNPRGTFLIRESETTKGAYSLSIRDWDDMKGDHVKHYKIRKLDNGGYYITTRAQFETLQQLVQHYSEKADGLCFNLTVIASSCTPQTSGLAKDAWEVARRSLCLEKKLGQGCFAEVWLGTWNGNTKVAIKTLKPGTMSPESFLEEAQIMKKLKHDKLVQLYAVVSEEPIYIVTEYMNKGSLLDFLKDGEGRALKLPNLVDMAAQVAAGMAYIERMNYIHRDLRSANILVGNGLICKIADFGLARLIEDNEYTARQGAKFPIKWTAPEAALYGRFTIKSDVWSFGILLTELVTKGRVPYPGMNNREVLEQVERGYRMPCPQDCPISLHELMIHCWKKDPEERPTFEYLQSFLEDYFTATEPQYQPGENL

For `CN(C)S(=O)(=O)c1ccc2c(c1)C(=Cc1cc3c([nH]1)CCCC3)C(=O)N2` [SU6656, 2-oxo-3-(4,5,6,7-tetrahydro-1H-indol-2-ylmethylene)-2,3-dihydro-1H-indole-5-sulfonic acid dimethylamide], the “decrease of respiratory quotient (RQ)” value (Wild-type mice; SU6656 4 mg/kg intraperitoneal at beginning of light cycle, vs vehicle, particularly first 3 hr after injection) was “more pronounced”, the “energy expenditure (EE) elevation vs vehicle” value (Wild-type mice; [6]) was 14% and the “oxygen consumption (VO2) elevation vs vehicle” value (Wild-type mice; [6]) was 14%. The physical activity (Wild-type mice; SU6656 4 mg/kg, dark or light cycle) was “without any alteration”, the “respiratory quotient (RQ), wild-type controls of Fyn knockout mice” value (Wild-type mice; three-month-old wild-type mice, SU6656 vs vehicle, 12 hr following injection) was “lower RQ” and the “total weight loss greater than vehicle-treated group” value ([1]; 12 hr after SU6656 injection) was 40%. The fat mass ([1]; T=12 hr, SU6656-treated vs vehicle-injected control animals) was “significantly reduced”, the lean mass ([1]; T=12 hr, vehicle vs SU6656-injected mice) was “no significant difference” and the “increase in oxidation of 14C-palmitate to 14CO2, soleus” value ([2]; red soleus isolated 3 hr after injection) was 25%. For the same compound, the “increase in oxidation of 14C-palmitate to 14CO2, gastrocnemius” value ([2]; white gastrocnemius isolated 3 hr after injection) was 33%, the “increased AMPK α subunit T172 phosphorylation” value [3] was roughly 3 fold and the “ACC S79 (ACC1) and S221 (ACC2) phosphorylation levels” value [4] was “increased”. For the same compound, the “body mass or physical activity in Fyn null mice” value (Fyn knockout mice; after SU6656 treatment) was “no alterations”, the “rate of change or RQ level in Fyn knockout mice” value (Fyn knockout mice; three-month-old Fyn knockout mice, SU6656 vs vehicle) was “no significant effect” and the “cells with redistribution of LKB1 into the cytoplasm” value [5] was “approximately 65%”. For the same compound, the “LKB1 signal in the cytoplasm of muscle cells” value (LKB1) was “increased LKB1 signal” and the Fyn kinase activity (Fyn kinase) was “sufficient to inactivate”.
